In a polymer gas permeability compilation:

Which CH4 permeability does the source give for `*C(=C(*)c1ccc(C(C)(C)C)cc1)c1ccc(O[Si](C)(C)C(C)(C)C)cc1` (repeat unit) here?
Its CH4 permeability is 540 Barrer.

And the CO2 permeability?
The CO2 permeability was 2300 Barrer.

What about the H2 permeability of the same compound?
The H2 permeability was 1000 Barrer.

And the N2 permeability?
Its N2 permeability is 210 Barrer.

What about the O2 permeability of the same compound?
The O2 permeability was 470 Barrer.

Which results are given for `*c1nc2cc(-c3ccc4[nH]c(-c5cc(Br)c(*)cc5Br)nc4c3)ccc2[nH]1` (repeat unit)?
H2 permeability: 1.89 Barrer; O2 permeability: 0.07 Barrer

For `*Cc1ccc(C*)c(Cl)c1` (repeat unit), which CO2 permeability is on record?
Its CO2 permeability is 0.0867 Barrer.

What about the H2 permeability of the same compound?
Its H2 permeability is 0.931 Barrer.

And the N2 permeability?
Its N2 permeability is 0.006 Barrer.

And the O2 permeability?
Its O2 permeability is 0.0456 Barrer.

Which CH4 permeability does the source give for `*c1ccc(Oc2ccc(-n3c(=O)c4cc5c(=O)n(*)c(=O)c5cc4c3=O)cc2)cc1` (repeat unit) here?
The CH4 permeability was 0.0682 Barrer.

What about the CO2 permeability of the same compound?
The CO2 permeability was 2.73 Barrer.

And the H2 permeability?
The H2 permeability was 7.52 Barrer.

And the N2 permeability?
The N2 permeability was 0.0995 Barrer.

What about the O2 permeability of the same compound?
The O2 permeability was 0.591 Barrer.

With `*c1cccc(C(c2cccc(N3C(=O)c4ccc(C(=O)c5ccc6c(c5)C(=O)N(*)C6=O)cc4C3=O)c2)(C(F)(F)F)C(F)(F)F)c1` (repeat unit) as the compound, how does the CH4 permeability read?
Its CH4 permeability is 0.014 Barrer.

What about the CO2 permeability of the same compound?
The CO2 permeability was 1.05 Barrer.

With `*Oc1c(C)cc(*)c(C(=O)c2ccc([N+](=O)[O-])cc2)c1C` (repeat unit) as the compound, how does the CH4 permeability read?
Its CH4 permeability is 0.76 Barrer.

What about the CO2 permeability of the same compound?
Its CO2 permeability is 11.4 Barrer.

What about the N2 permeability of the same compound?
Its N2 permeability is 1.27 Barrer.

What about the O2 permeability of the same compound?
The O2 permeability was 5.04 Barrer.

With `*Oc1c(C)cc(C(C)(C)c2cc(C)c(Oc3ccc(S(=O)(=O)c4ccc(*)cc4)cc3)c(C)c2)cc1C` (repeat unit) as the compound, how does the CH4 permeability read?
The CH4 permeability was 0.95 Barrer.

What about the CO2 permeability of the same compound?
The CO2 permeability was 21 Barrer.

What about the N2 permeability of the same compound?
Its N2 permeability is 1.06 Barrer.

And the O2 permeability?
Its O2 permeability is 5.6 Barrer.

With `*C(=C(*)c1ccc(-c2ccccc2)cc1)c1ccccc1` (repeat unit) as the compound, how does the CH4 permeability read?
The CH4 permeability was 170 Barrer.

And the CO2 permeability?
Its CO2 permeability is 1300 Barrer.

What about the H2 permeability of the same compound?
Its H2 permeability is 440 Barrer.

What about the N2 permeability of the same compound?
The N2 permeability was 65 Barrer.

What about the O2 permeability of the same compound?
Its O2 permeability is 180 Barrer.

Which CO2 permeability does the source give for `*/C=C/c1ccc(*)cc1[Si](C)(C)C(C)(C)C` (repeat unit) here?
The CO2 permeability was 26 Barrer.

What about the N2 permeability of the same compound?
The N2 permeability was 1.5 Barrer.

And the O2 permeability?
Its O2 permeability is 6.5 Barrer.

With `*c1c(C)cc2c(c1C)C1c3ccccc3C2c2cc(C)c(-n3c(=O)c4cc5c(=O)n(*)c(=O)c5cc4c3=O)c(C)c21` (repeat unit) as the compound, how does the CH4 permeability read?
Its CH4 permeability is 238 Barrer.

What about the CO2 permeability of the same compound?
Its CO2 permeability is 3360 Barrer.

And the H2 permeability?
The H2 permeability was 2380 Barrer.

And the N2 permeability?
Its N2 permeability is 180 Barrer.

What about the O2 permeability of the same compound?
Its O2 permeability is 680 Barrer.

For `*c1cc2c(cc1*)C1(C(C)C)c3ccccc3C2(C(C)C)c2cc3c(cc21)Oc1cc2nc(*)c(*)nc2cc1O3` (repeat unit), which CH4 permeability is on record?
Its CH4 permeability is 7.27 Barrer.

What about the H2 permeability of the same compound?
Its H2 permeability is 1100 Barrer.

And the N2 permeability?
Its N2 permeability is 7.09 Barrer.

And the O2 permeability?
The O2 permeability was 61 Barrer.

Which CH4 permeability does the source give for `*c1ccc(Cc2ccc(N3C(=O)c4ccc(-c5ccc6c(c5)C(=O)N(*)C6=O)cc4C3=O)cc2)cc1` (repeat unit) here?
The CH4 permeability was 0.0532 Barrer.

What about the CO2 permeability of the same compound?
The CO2 permeability was 1.58 Barrer.

And the H2 permeability?
The H2 permeability was 6.35 Barrer.

What about the N2 permeability of the same compound?
The N2 permeability was 0.0221 Barrer.

What about the O2 permeability of the same compound?
Its O2 permeability is 0.188 Barrer.

For `*c1c(C)c(C)c(N2C(=O)c3ccc(Oc4cc(C)c(Oc5ccc6c(c5)C(=O)N(*)C6=O)c(C)c4C)cc3C2=O)c(C)c1C` (repeat unit), which CH4 permeability is on record?
Its CH4 permeability is 7.6 Barrer.

And the CO2 permeability?
Its CO2 permeability is 200 Barrer.

And the H2 permeability?
Its H2 permeability is 230 Barrer.

And the N2 permeability?
The N2 permeability was 8.1 Barrer.

And the O2 permeability?
Its O2 permeability is 33 Barrer.

Which results are given for `*CC(*)c1ccc(OC)cc1` (repeat unit)?
CH4 permeability: 0.91 Barrer; CO2 permeability: 18.9 Barrer; N2 permeability: 0.61 Barrer; O2 permeability: 2.6 Barrer

Which CH4 permeability does the source give for `*c1cc2c(cc1C)-c1cc(C)c(N3C(=O)c4ccc(C(c5ccc6c(c5)C(=O)N(*)C6=O)(C(F)(F)F)C(F)(F)F)cc4C3=O)cc1S2(=O)=O` (repeat unit) here?
Its CH4 permeability is 1.74 Barrer.

And the CO2 permeability?
Its CO2 permeability is 73.5 Barrer.

What about the H2 permeability of the same compound?
Its H2 permeability is 156 Barrer.

What about the N2 permeability of the same compound?
Its N2 permeability is 3.27 Barrer.

And the O2 permeability?
Its O2 permeability is 16.5 Barrer.

Which results are given for `*Oc1ccc(C(C)(C)c2ccc(Oc3ccc4c(c3)C(=O)N(c3cccc(N5C(=O)c6ccc(*)cc6C5=O)c3)C4=O)cc2)cc1` (repeat unit)?
CH4 permeability: 0.0356 Barrer; CO2 permeability: 1.3 Barrer; N2 permeability: 0.0526 Barrer; O2 permeability: 0.4 Barrer

For `*C(=C(*)c1ccc(CCCC)cc1)c1ccccc1` (repeat unit), which CO2 permeability is on record?
The CO2 permeability was 160 Barrer.

What about the N2 permeability of the same compound?
The N2 permeability was 11 Barrer.

What about the O2 permeability of the same compound?
Its O2 permeability is 37 Barrer.

What does the source list for `*Oc1c(C)cc(C(c2cc(C)c(OC(*)=O)c(C)c2)(C(F)(F)F)C(F)(F)F)cc1C` (repeat unit)?
CH4 permeability: 2.79 Barrer; CO2 permeability: 71.5 Barrer; H2 permeability: 126 Barrer; N2 permeability: 4.75 Barrer; O2 permeability: 20.9 Barrer

Which CH4 permeability does the source give for `*C(=C(*)c1ccc2c(c1)CCC2)c1ccccc1` (repeat unit) here?
Its CH4 permeability is 60 Barrer.

What about the CO2 permeability of the same compound?
The CO2 permeability was 390 Barrer.

And the H2 permeability?
The H2 permeability was 360 Barrer.

What about the N2 permeability of the same compound?
Its N2 permeability is 30 Barrer.

What about the O2 permeability of the same compound?
The O2 permeability was 86 Barrer.

What does the source list for `*c1ccc(Oc2ccc(C3(c4ccc(Oc5ccc(N6C(=O)c7ccc(C(c8ccc9c(c8)C(=O)N(*)C9=O)(C(F)(F)F)C(F)(F)F)cc7C6=O)cc5)cc4)c4ccccc4-c4ccccc43)cc2)cc1` (repeat unit)?
CH4 permeability: 0.69 Barrer; CO2 permeability: 19.9 Barrer; H2 permeability: 61.3 Barrer; N2 permeability: 1.26 Barrer; O2 permeability: 4.88 Barrer

With `*C(=C(*)c1ccc([Si](C(C)C)(C(C)C)C(C)C)cc1)c1ccccc1` (repeat unit) as the compound, how does the CH4 permeability read?
The CH4 permeability was 315 Barrer.

What about the CO2 permeability of the same compound?
The CO2 permeability was 1300 Barrer.

What about the H2 permeability of the same compound?
The H2 permeability was 635 Barrer.

And the N2 permeability?
Its N2 permeability is 130 Barrer.

What about the O2 permeability of the same compound?
The O2 permeability was 290 Barrer.

What does the source list for `*Nc1ccc(C(c2ccc(NC(=O)c3ccc(Oc4cc(C(C)(C)C)c(Oc5ccc(C(*)=O)cc5)cc4C(C)(C)C)cc3)cc2)(C(F)(F)F)C(F)(F)F)cc1` (repeat unit)?
CH4 permeability: 1.24 Barrer; CO2 permeability: 36 Barrer; N2 permeability: 1.51 Barrer; O2 permeability: 7.88 Barrer

Which CO2 permeability does the source give for `*/C=C/c1ccc(*)cc1[Si](C)(C)CCCCCCCC` (repeat unit) here?
The CO2 permeability was 60 Barrer.

What about the N2 permeability of the same compound?
The N2 permeability was 3.9 Barrer.

What about the O2 permeability of the same compound?
The O2 permeability was 12 Barrer.

For `*c1c(C)cc2c(c1C)C1c3ccccc3C2c2cc(C)c(N3C(=O)c4ccc(C(c5ccc6c(c5)C(=O)N(*)C6=O)(C(F)(F)F)C(F)(F)F)cc4C3=O)c(C)c21` (repeat unit), which CH4 permeability is on record?
Its CH4 permeability is 121 Barrer.

And the CO2 permeability?
The CO2 permeability was 1730 Barrer.

What about the H2 permeability of the same compound?
The H2 permeability was 1400 Barrer.

And the N2 permeability?
The N2 permeability was 113 Barrer.

And the O2 permeability?
Its O2 permeability is 374 Barrer.

What does the source list for `*c1ccc(-c2ccc(Oc3ccc4c(c3)C3(CC4(C)C)CC(C)(C)c4ccc(Oc5ccc(-c6ccc(N7C(=O)c8ccc(Oc9ccc%10c(c9)C(=O)N(*)C%10=O)cc8C7=O)cc6)cc5C(F)(F)F)cc43)c(C(F)(F)F)c2)cc1` (repeat unit)?
CH4 permeability: 0.41 Barrer; CO2 permeability: 22.6 Barrer; N2 permeability: 1.12 Barrer; O2 permeability: 13.1 Barrer

What does the source list for `*O[Si](*)(C)CCCCCCCC` (repeat unit)?
CH4 permeability: 313 Barrer; CO2 permeability: 932 Barrer; N2 permeability: 88.3 Barrer; O2 permeability: 196 Barrer

Which CH4 permeability does the source give for `*c1cccc(Oc2cccc(N3C(=O)c4ccc(C(c5ccc6c(c5)C(=O)N(*)C6=O)(C(F)(F)F)C(F)(F)F)cc4C3=O)c2)c1` (repeat unit) here?
Its CH4 permeability is 0.032 Barrer.

And the CO2 permeability?
Its CO2 permeability is 2.1 Barrer.

And the H2 permeability?
The H2 permeability was 14 Barrer.

What about the N2 permeability of the same compound?
The N2 permeability was 0.1 Barrer.

And the O2 permeability?
Its O2 permeability is 0.68 Barrer.

With `*Oc1ccc(Oc2ccc(C(=O)c3ccc(*)cc3)cc2)c(-c2cc(C)cc(C)c2)c1` (repeat unit) as the compound, how does the CH4 permeability read?
Its CH4 permeability is 0.05 Barrer.

What about the CO2 permeability of the same compound?
The CO2 permeability was 1.6 Barrer.

And the H2 permeability?
The H2 permeability was 4.6 Barrer.

What about the N2 permeability of the same compound?
Its N2 permeability is 0.053 Barrer.

What about the O2 permeability of the same compound?
Its O2 permeability is 0.33 Barrer.

Which results are given for `*CC(*)OC1CC2CC1C1CCCC21` (repeat unit)?
CO2 permeability: 12.6 Barrer; N2 permeability: 1.2 Barrer; O2 permeability: 3.06 Barrer

For `*c1c(C)cc(C)c(N2C(=O)c3ccc(C(c4ccc5c(c4)C(=O)N(*)C5=O)(C(F)(F)F)C(F)(F)F)cc3C2=O)c1C` (repeat unit), which CH4 permeability is on record?
Its CH4 permeability is 20.4 Barrer.

And the CO2 permeability?
The CO2 permeability was 422 Barrer.

What about the H2 permeability of the same compound?
The H2 permeability was 435 Barrer.

What about the N2 permeability of the same compound?
Its N2 permeability is 24.3 Barrer.

And the O2 permeability?
Its O2 permeability is 87.7 Barrer.
